This is an account of results in ChEMBL document CHEMBL1144482, “Design, synthesis, biochemical evaluation and antimycobacterial action of phosphonate inhibitors of antigen 85C, a crucial enzyme involved in biosynthesis of the mycobacterial cell wall” (Eur J Med Chem, 2007).

For assay [1], the system named is Mycobacterium avium. The assay can be described thus: Growth inhibition of Mycobacterium avium 2447. The assay is classed as functional.
Assay [2] addresses Diacylglycerol acyltransferase/mycolyltransferase Ag85C (Mycobacterium tuberculosis, UniProt P9WQN9). In words: Inhibition of Mycobacterium tuberculosis recombinant antigen 85C mycolyltransferase.

The structures appear in SMILES notation. Values after ≈ are worked out from the molar mass of the structure shown. Active and inactive are the calls of the source. No cut-off for these calls is given here.

Diacylglycerol acyltransferase/mycolyltransferase Ag85C, sequence (P9WQN9 whole entry): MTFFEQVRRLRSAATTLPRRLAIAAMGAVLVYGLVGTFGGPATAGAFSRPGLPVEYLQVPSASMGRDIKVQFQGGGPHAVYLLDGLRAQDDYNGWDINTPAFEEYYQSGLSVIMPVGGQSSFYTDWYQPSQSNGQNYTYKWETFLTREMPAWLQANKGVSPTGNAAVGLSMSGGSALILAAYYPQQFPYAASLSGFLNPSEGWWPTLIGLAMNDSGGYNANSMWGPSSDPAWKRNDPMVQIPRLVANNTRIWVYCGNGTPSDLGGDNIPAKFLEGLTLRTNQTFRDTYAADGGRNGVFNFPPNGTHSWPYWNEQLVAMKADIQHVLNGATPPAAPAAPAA

Take `CCCCP(=O)(OCC)OCN1C(=O)c2ccccc2C1=O` (stereo not drawn): the outcome in assay [1] was inactive.

`CC[C@H]1OC(=O)[C@H](C)[C@@H](O[C@H]2C[C@@](C)(OC)[C@@H](O)[C@H](C)O2)[C@H](C)[C@@H](O[C@@H]2O[C@H](C)C[C@H](N(C)C)[C@H]2O)[C@](C)(OC)C[C@@H](C)C(=O)[C@H](C)[C@@H](O)[C@]1(C)O` [CLARITHROMYCIN] came in with an MIC in assay [1] of 0.2 µg/mL (≈ 0.267 µM).

For the compound `CCCCCCCCCCCCCCP(=O)(OCC)OCc1ccccc1Oc1ccccc1` (stereo not drawn), the IC50 in assay [2] turned out to be 862 µM.

For `CCCCCCCP(=O)(OCC)OCN1C(=O)c2ccccc2C1=O` (stereo not drawn), the result in assay [1] was inactive.

Turning to `CCCCCCP(=O)(OCC)OCc1ccccc1Oc1ccccc1` (stereo not drawn), in assay [1], the MIC is 260 µg/mL (≈ 690 µM). In addition, the half-maximal inhibitory concentration (IC50) in assay [2] came out at 42.6 µM.

Regarding `CCOP(=O)(O)CCc1ccccc1`, in assay [2], the IC50 was found to be 225 µM.

Regarding `CCCCCCCCCP(=O)(OCC)OCc1ccccc1Oc1ccccc1` (stereo not drawn), inhibition of growth in assay [1] (MIC) required 188 µg/mL (≈ 450 µM). Moreover, the IC50 in assay [2] is 14.8 µM.

Turning to `CCCCCCP(=O)(OCC)OCc1cc(OC)c(OC)c(OC)c1` (stereo not drawn), in assay [2], the IC50 was 102 µM.

The compound `CCCCCCCCCP(=O)(OCC)OCN1C(=O)c2ccccc2C1=O` (stereo not drawn) returned an MIC in assay [1] of 84.5 µg/mL (≈ 214 µM).

`CCCCP(=O)(OCC)OCc1ccccc1Oc1ccccc1` (stereo not drawn): in assay [1], inhibition of growth (MIC) required 249 µg/mL (≈ 714 µM). The IC50 in assay [2] turned out to be 2 µM.

Turning to `CCCCCCCCCP(=O)(OCC)OCCN1C(=O)c2ccccc2C1=O` (stereo not drawn), in assay [1], the outcome was inactive.

With `CCOP(=O)(O)CCCCN1C(=O)c2ccccc2C1=O`, the IC50 in assay [2] was 110 µM.

In assay [1], `CCCCP(=O)(OCC)OCCN1C(=O)c2ccccc2C1=O` (stereo not drawn) had an MIC of 406 µg/mL (≈ 1200 µM).

Consider `CCCCCCCP(=O)(OCC)OCc1ccccc1Oc1ccccc1` (stereo not drawn), for which the MIC in assay [1] stood at 319 µg/mL (≈ 817 µM). Moreover, the IC50 in assay [2] amounted to 21 µM.
